In patent US11135229B2, “Cat and dog sterilization by estrogenic compounds” (Insigna Inc., priority 2018, dated 2021):

How the values were obtained:
[1] = system: premature male and female rats; assay type: in vivo
[2] = rat, in vivo, sc
Experimental: Hormonal measurement. Blood was collected from the tail vein or by cardiac puncture. The blood was centrifuged at 2000×g for 10 minutes; then serum was collected and preserved at −20° C. until further analyses. Serum estradiol concentrations were measured by using ELISA kits (DRG EIA4399) with a reportable range of 1.4-200 μg/ml.
A silicone capsule containing 17β-estradiol 3-benzoate (EB, Sigma E8515) was used as a device to elevate blood 17β-estradiol (E2) concentration to a supra-physiological level. Once implanted subcutaneously, the silicone capsule with EB (called eSpay) releases EB for an extended period of time. […] Therefore, EB that contained 300 μg of EB (herein EB300) was made by dissolving 300 μg of EB in 5 μl of sesame oil (Sigma S3547), and it was inserted into a silicone tube (Dow Corning 508-005) that was later closed with silicone sealant (Factor II, Inc. Medical Adhesive A-100). The capsule was kept at room temperature until use. The EB300 capsule was approximately 8 mm long and 2.16 mm in diameter. […]
The efficacy of the EB300 capsule as a device to elevate E2 levels in its recipient was tested after implanting it on the day of birth (post-natal day 0, PND 0). Serum and hypothalami were collected at PND 1, 2, 3, 4, 7, 10, 21, and 30, and E2 concentrations were measured.

[3] = premature male rats, capsule injected subcutaneously

**Q.** With `C[C@]12CC[C@@H]3c4ccc(OC(=O)c5ccccc5)cc4CC[C@H]3[C@@H]1CC[C@@H]2O` [EB, 17β-Estradiol 3-benzoate] as the molecule, how does the Female reproductive system ([1]; premature female rats, capsule injected) read?
**A.** preventing the females from undergoing menstrual cycling and from producing ova

**Q.** What about the “Sterility of male rats” value [1, 3] of the same molecule?
**A.** permanently sterile

**Q.** What about the “Testicular testosterone and sperm production” value [1, 3] of the same molecule?
**A.** did not produce testosterone or sperm

**Q.** And the Death or sickness ([1]; rat, in vivo)?
**A.** no subject animal died or exhibited sickness

**Q.** What about the “Immune system, liver and kidney function examination” value ([1]; rat, in vivo) of the same molecule?
**A.** no clinical pathology

**Q.** And the “Period of sustained, high blood E2 level” value [2]?
**A.** about three weeks
